These results are taken from publication PMC10932284 (International Journal of Molecular Sciences, 2024).

In one assay the target is T1, MtCA1 (Mycobacterium tuberculosis, UniProt P9WPJ7).
T1 construct: made in house
The assay can be described thus: biochemical.

For the next assay, the target named is T2, MtCA2 (Mycobacterium tuberculosis, UniProt P9WPJ9).
T2 construct: made in house
As to the kind of experiment: stopped-flow CO2 hydrase assay, MtCA2. The format is biochemical. The protocol: BTDs 2a-2t were submitted to a stopped-flow CO2 hydrase kinetic assay to evaluate the inhibitory profile against the mycobacterial β-CAs MtCA1, MtCA2, MtCA3 (Table 1), in comparison to the inhibitory effect on hCA I and II, which were selected due to their abundance in the human organism and thus off-target in this study.
A stopped-flow instrument from Applied Photophysics was utilized to assess the inhibition of CA-catalyzed CO2 hydration activity. […] The assay employed 20 mM HEPES (pH 8.3) as a buffer and 20 mM Na2SO4 to maintain constant ionic strength. The investigation focused on the initial rates of the CA-catalyzed CO2 hydration reaction over a duration of 10–100 s. CO2 concentrations ranging from 1.7 to 17 mM were employed to determine kinetic parameters and inhibition constants. For each inhibitor, a minimum of six traces of the initial 5–10% of the reaction were utilized to determine the initial velocity. Uncatalyzed rates were determined in a similar manner and subtracted from the overall observed rates. Inhibitor stock solutions (0.1 mM) were initially prepared in distilled–deionized water, followed by subsequent dilutions up to 0.01 nM with the assay buffer. To allow for the formation of the E-I complex, inhibitor and enzyme solutions were preincubated together for 15 min at room temperature before the assay. The inhibition constants were derived through nonlinear least-squares methods using PRISM and the Cheng–Prusoff equation, as previously reported, representing the mean from at least three different determinations.

A further assay deals with MtCA3 (Mycobacterium tuberculosis, UniProt P96878). As to the kind of experiment: biochemical.
Chain of MtCA3 (P96878 550-764 limits assumed): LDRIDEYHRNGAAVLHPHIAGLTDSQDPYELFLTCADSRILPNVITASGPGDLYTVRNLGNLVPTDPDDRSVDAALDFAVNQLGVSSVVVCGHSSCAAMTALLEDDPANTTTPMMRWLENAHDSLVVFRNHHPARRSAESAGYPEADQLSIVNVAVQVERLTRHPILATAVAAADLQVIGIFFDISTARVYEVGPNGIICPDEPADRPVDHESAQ
Assay [1] relates to M. tuberculosis strain susceptible to rifampicin and isoniazid. As to the kind of experiment: tuberculostatic activity assay, strain susceptible to rifampicin and isoniazid. Type of assay: cell-based, Mycobacterium tuberculosis. The settings on record: 2 µg/mL in Lowenstein Jensen medium, 28 days, 37 °C.
The next assay concerns the target hCA I. Also noted: method as in PMID 31794211. The conditions noted are these: stopped-flow CO2 hydrase assay; cited from earlier work.
Another assay has as its target hCA II. Also noted: method as in PMID 31794211. The settings on record: stopped-flow CO2 hydrase assay; cited from earlier work.

T2 sequence (P9WPJ9 whole entry, looked up): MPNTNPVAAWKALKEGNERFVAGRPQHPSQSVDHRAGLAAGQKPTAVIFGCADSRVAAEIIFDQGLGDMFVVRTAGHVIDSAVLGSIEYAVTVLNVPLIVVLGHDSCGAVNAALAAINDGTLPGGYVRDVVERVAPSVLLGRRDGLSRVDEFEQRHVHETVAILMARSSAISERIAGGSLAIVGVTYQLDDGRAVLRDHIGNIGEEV
T1 sequence (P9WPJ7 whole entry): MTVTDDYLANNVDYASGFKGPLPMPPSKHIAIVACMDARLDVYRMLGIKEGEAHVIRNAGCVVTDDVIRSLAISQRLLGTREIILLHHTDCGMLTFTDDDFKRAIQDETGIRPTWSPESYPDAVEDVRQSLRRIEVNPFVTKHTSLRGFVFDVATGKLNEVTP

As usually defined, the Ki is the equilibrium dissociation constant of an inhibitor or competing ligand from its target. Take `O=C1Nc2ccccc2S(=O)(=O)N1` [2a]: the “Selectivity Index (SI) hCA II/MtCA1” value on MtCA1 (ratio of Ki values) came to 0.1. For the same compound, the Ki on MtCA1 (stopped-flow CO2 hydrase assay, mean from three assays, read-out: Ki MtCA1) is 1680 ± 93 nM; at MtCA2 it was 68.6 ± 3.1 nM; at MtCA3 (stopped-flow CO2 hydrase assay, mean from three assays) it was 28.7 ± 2.1 nM; on hCA I, 866 nM; at hCA II, 150 nM. Also, the “Selectivity Index (SI) hCA II/MtCA2” value at MtCA2 (ratio of Ki values) stood at 2.2. At MtCA3 (ratio of Ki values), the “Selectivity Index (SI) hCA II/MtCA3” value turned out to be 5.2. Also, in assay [1], the “number of M. tuberculosis colonies/standard inoculum volume (0.2 mL)” value is on record as 0 colonies.
